Earlier results in patent US6683094B2, “Antihistaminic piperidine derivatives and intermediates for the preparation thereof” (Aventis Pharmaceuticals Inc., priority 1998, dated 2004).

Settings: to two primary metabolites (fexofenadine and an inactive dealkylated metabolite)

CC(C)(C)c1ccc(C(O)CCCN2CCC(C(O)(c3ccccc3)c3ccccc3)CC2)cc1 (stereo not drawn) [Terfenadine, α-[4-(1,1-dimethylethyl)phenyl]-4-(hydroxydiphenylmethyl)-1-piperidinebutanol]
first pass metabolism: 99%
